Experimental data from patent publication US10653144B2, “Pesticidal and parasiticidal vinyl isoxazoline compounds” (BOEHRINGER INGELHEIM ANIMAL HEALTH USA INC., priority 2016, dated 2020).

What follows are compounds tested on A. aegypti L1 larvae (assay: A. aegypti L1 larvae motility dose response assay). Settings: Aedes aegypti, 48 h, diluted LB media, 25° C., motility vs DMSO control wells.
Experimental: Efficacy of Compounds Against A. aegypti Mosquitos Compounds were formulated in 100% DMSO are added to microtiter plates containing 180 μl of diluted LB media (Luria-Bertani media is a combination of tryptone, salt and yeast extract). Ten A. aegypti L1 larvae are added and the plates are incubated at 25° C. for 48 h. The efficacy of a compound is determined based on the motility of the larvae as compared to average motility of control wells containing DMSO only. A dose response assay was conducted to determine an EC50 value.
Work on `O=C(CNC(=O)c1ccc(/C=C/C2=NOC(c3cc(Cl)cc(C(F)(F)F)c3)(C(F)(F)F)C2)c2ccccc12)NCC(F)(F)F` (stereo not shown) [Compound 1, 2-([4-[2-[5-[3-chloro-5-(trifluoromethyl)phenyl]-5-(trifluoromethyl)-4,5-dihydro-1,2-oxazol-3-yl]ethenyl]naphthalen-1-yl]formamido)-N-(2,2,2-trifluoroethyl)acetamide] yielded an EC50 of at most 20 µM.
For `O=C(NCCC(F)(F)F)c1ccc(/C=C/C2=NOC(c3cc(Cl)cc(C(F)(F)F)c3)(C(F)(F)F)C2)c2ccccc12` (stereo not shown) [Compound 2, 4-[2-[5-[3-chloro-5-(trifluoromethyl)phenyl]-5-(trifluoromethyl)-4,5-dihydro-1,2-oxazol-3-yl]ethenyl]-N-(3,3,3-trifluoropropyl)naphthalene-1-carboxamide], the EC50 was at most 20 µM.
In the case of `O=C(CNC(=O)c1ccc(/C=C/C2=NOC(c3cc(Cl)cc(C(F)(F)F)c3)(C(F)(F)F)C2)n2cncc12)NCC(F)(F)F` (stereo not shown) [Compound 5, 2-([5-[2-[5-[3-chloro-5-(trifluoromethyl)phenyl]-5-(trifluoromethyl)-4,5-dihydro-1,2-oxazol-3-yl]ethenyl]imidazo[1,5-a]pyridin-8-yl]formamido)-N-(2,2,2-trifluoroethyl)acetamide], the EC50 is reported as at most 20 µM.
`O=C(NCCC(F)(F)F)c1ccc(/C=C/C2=NOC(c3cc(Cl)cc(C(F)(F)F)c3)(C(F)(F)F)C2)n2cncc12` (stereo not shown) [Compound 6, 5-[2-[5-[3-chloro-5-(trifluoromethyl)phenyl]-5-(trifluoromethyl)-4,5-dihydro-1,2-oxazol-3-yl]ethenyl]-N-(3,3,3-trifluoropropyl)imidazo[1,5-a]pyridine-8-carboxamide] showed an EC50 of at most 20 µM.
